Tests used:
[1] = system: Phytophthora infestans; test: microbe, parasite or virus in culture; format: cell-based; conditions: in Secale cereale, 168 h, read-out: control compared to the untreated check
[2] = system: Phytophthora infestans; test: whole plant or invertebrate; format: in vivo, Phytophthora infestans on tomato plants; conditions: in Solanum lycopersicum, 24 h, read-out: control compared to the untreated check
[3] = system: Plasmopara viticola; test: Example B: Plasmopara viticola test in grape (greenhouse, preventive); format: in vivo; conditions: 24 h, grape seedlings sprayed one day before inoculation, disease severity rating, read-out: control compared to the untreated check
Protocol: Example B: Plasmopara viticola Test in Grape
The compound were dissolved in 2% DMSO/Acetone & then mixed with water containing emulsifier to a calibrated spray volume of 50 mL. The spray solutions were poured into spray bottles for further applications.
To test the preventive activity of compounds, 5 week old healthy grape seedlings, cv. Thompson seedless, raised in the greenhouse, were sprayed with the active compound preparation at the stated application rates inside spray cabinets using hallow cone nozzles. One day after treatment, the plants were inoculated with an inoculum suspension (sterile water) containing 6×10^4 Plasmopara viticola inoculum. The inoculated plants were then kept in a greenhouse chamber at 18-21° C. temperature and 95-100% relative humidity for disease expression.
A visual assessment of the performance of the compound was carried out by rating the disease severity (0-100% scale) on treated plants 3, 7 and 10 days after application. Efficacy (% control) of the compound was calculated by comparing the disease rating in the treatment with the one of the untreated control. The compounds were also assessed for their plant compatibility by recording symptoms like necrosis, chlorosis & stunting

N#Cc1ccnc(OCC(=O)N2CCC(c3nc(C4=NOC(c5c(Cl)cccc5Cl)C4)cs3)CC2)n1 (stereo not drawn) [Compound 112, 2-(2-(4-(4-(5-(2,6-dichlorophenyl)-4,5-dihydroisoxazol-3-yl)thiazol-2-yl)piperidin-1-yl)-2-oxoethoxy)pyrimidine-4-carbonitrile]
≥ 70%: inhibition of growth at 30 ppm [1] | pest or weed control at 50 ppm [2] | pest or weed control at 50 ppm [3]

CS(=O)(=O)Oc1cccc(Cl)c1C1CC(c2csc(C3CCN(C(=O)COc4nccc(C#N)n4)CC3)n2)=NO1 (stereo not drawn) [Compound 113, 3-chloro-2-(3-(2-(1-(2-((4-cyanopyrimidin-2-yl)oxy)acetyl)piperidin-4-yl)thiazol-4-yl)-4,5-dihydroisoxazol-5-yl)phenyl methanesulfonate]
≥ 70%: inhibition of growth at 30 ppm [1] | pest or weed control at 50 ppm [2] | pest or weed control at 50 ppm [3]

N#Cc1ccnc(OCC(=O)N2CCC(c3nc(C4=NOC(c5c(Cl)cccc5C(F)(F)F)C4)cs3)CC2)n1 (stereo not drawn) [Compound 114, 2-(2-(4-(4-(5-(2-chloro-6-(trifluoromethyl)phenyl)-4,5-dihydroisoxazol-3-yl)thiazol-2-yl)piperidin-1-yl)-2-oxoethoxy)pyrimidine-4-carbonitrile]
≥ 70%: inhibition of growth at 30 ppm [1] | pest or weed control at 50 ppm [2] | pest or weed control at 50 ppm [3]

N#Cc1ccnc(OCC(=O)N2CCC(c3nc(C4=NOC(c5c(F)cccc5F)C4)cs3)CC2)n1 (stereo not drawn) [Compound 116, 2-(2-(4-(4-(5-(2,6-difluorophenyl)-4,5-dihydroisoxazol-3-yl)thiazol-2-yl)piperidin-1-yl)-2-oxoethoxy)pyrimidine-4-carbonitrile]
≥ 70%: inhibition of growth at 30 ppm [1] | pest or weed control at 50 ppm [2] | pest or weed control at 50 ppm [3]

N#Cc1ccnc(OCC(=O)N2CCC(c3nc(C4=NOC(c5c(F)cccc5Cl)C4)cs3)CC2)n1 (stereo not drawn) [Compound 118, 2-(2-(4-(4-(5-(2-chloro-6-fluorophenyl)-4,5-dihydroisoxazol-3-yl)thiazol-2-yl)piperidin-1-yl)-2-oxoethoxy)pyrimidine-4-carbonitrile]
≥ 70%: inhibition of growth at 30 ppm [1] | pest or weed control at 50 ppm [2] | pest or weed control at 50 ppm [3]

COc1cncc(OCC(=O)N2CCC(c3nc(C4=NOC(c5c(F)cccc5Br)C4)cs3)CC2)n1 (stereo not drawn) [Compound 120, 1-(4-(4-(5-(2-bromo-6-fluorophenyl)-4,5-dihydroisoxazol-3-yl)thiazol-2-yl)piperidin-1-yl)-2-((6-methoxypyrazin-2-yl)oxy)ethan-1-one]
≥ 70%: inhibition of growth at 30 ppm [1] | pest or weed control at 50 ppm [2] | pest or weed control at 50 ppm [3]

O=C(COc1nccnc1Cl)N1CCC(c2nc(C3=NOC(c4c(F)cccc4Br)C3)cs2)CC1 (stereo not drawn) [Compound 121, 1-(4-(4-(5-(2-bromo-6-fluorophenyl)-4,5-dihydroisoxazol-3-yl)thiazol-2-yl)piperidin-1-yl)-2-((3-chloropyrazin-2-yl)oxy)ethan-1-one]
≥ 70%: inhibition of growth at 30 ppm [1] | pest or weed control at 50 ppm [2] | pest or weed control at 50 ppm [3]

O=C(COc1nccnc1Cl)N1CCC(c2nc(C3=NOC(c4c(F)cccc4F)C3)cs2)CC1 (stereo not drawn) [Compound 122, 2-((3-chloropyrazin-2-yl)oxy)-1-(4-(4-(5-(2,6-difluorophenyl)-4,5-dihydroisoxazol-3-yl)thiazol-2-yl)piperidin-1-yl)ethan-1-one]
≥ 70%: inhibition of growth at 30 ppm [1] | pest or weed control at 50 ppm [2] | pest or weed control at 50 ppm [3]

O=C(COc1nccnc1Cl)N1CCC(c2nc(C3=NOC(c4c(Cl)cccc4Cl)C3)cs2)CC1 (stereo not drawn) [Compound 124, 2-((3-chloropyrazin-2-yl)oxy)-1-(4-(4-(5-(2,6-dichlorophenyl)-4,5-dihydroisoxazol-3-yl)thiazol-2-yl)piperidin-1-yl)ethan-1-one]
≥ 70%: inhibition of growth at 30 ppm [1] | pest or weed control at 50 ppm [2] | pest or weed control at 50 ppm [3]

Reference: patent US12471596B2 (priority 2019, dated 2025)
